From PubChem BioAssay AID330 (DTP/NCI, 2004)
Where “and” joins values, the source holds several entries; their conditions need not be identical. Identical values can stand only once. Inconclusive results and toxic doses are left out. Rule for the calls: active = survival T/C of 150% or more; inactive = T/C below 125% in these data.

System: P388 leukemia ip, CD2F1 mice, survival T/C
Assay: NCI In Vivo Anticancer Drug Screen. Data for tumor model P388 Leukemia (intraperitoneal) in CD2F1 (CDF1) mice
Details: endpoint: median survival time, higher = longer survival
In short: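 Mice carrying the transplanted tumor received test compound or vehicle. Survival was recorded in each group, and the value is the treated-group measurement divided by that of the vehicle-treated control group.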

[1] = dose: 50.0 mg/kg/injection, schedule: Q01DX009 (ip), vehicle: saline with Tween-80
[2] = dose: 100.0 mg/kg/injection, schedule: Q01DX009 (ip), vehicle: saline with Tween-80
[3] = dose: 200.0 mg/kg/injection, schedule: Q01DX009 (ip), vehicle: saline with Tween-80
[4] = dose: 400.0 mg/kg/injection, schedule: Q01DX009 (ip), vehicle: saline with Tween-80
[5] = dose: 50.0 mg/kg/injection, schedule: Q01DX009 (ip), vehicle: Klucel (hydroxypropylcellulose) (HPC)
[6] = dose: 100.0 mg/kg/injection, schedule: Q01DX009 (ip), vehicle: Klucel (hydroxypropylcellulose) (HPC)
[7] = dose: 200.0 mg/kg/injection, schedule: Q01DX009 (ip), vehicle: Klucel (hydroxypropylcellulose) (HPC)
[8] = dose: 50.0 mg/kg/injection, schedule: Q01DX005 (ip), vehicle: saline with Tween-80
[9] = dose: 100.0 mg/kg/injection, schedule: Q01DX005 (ip), vehicle: saline with Tween-80
[10] = dose: 200.0 mg/kg/injection, schedule: Q01DX005 (ip), vehicle: saline with Tween-80

Measured: T/C

CCCCOC1OCN(C)CC1(C)C (stereo not given)
inactive: dose: 25.0 mg/kg/injection, schedule: Q01DX009 (ip), vehicle: saline with Tween-80 98 % of control | [1] 114 % of control

CCOC(=O)NNCC(=O)OCc1ccccc1
inactive: dose: 25.0 mg/kg/injection, schedule: Q01DX009 (ip), vehicle: other 90 % of control | dose: 50.0 mg/kg/injection, schedule: Q01DX009 (ip), vehicle: other 93 % of control | dose: 100.0 mg/kg/injection, schedule: Q01DX009 (ip), vehicle: other 100 % of control | dose: 200.0 mg/kg/injection, schedule: Q01DX009 (ip), vehicle: other 109 % of control

CCOc1ccc(-n2c(=O)c(N=Nc3ccccc3Cl)c(O)n(-c3ccc(Br)cc3)c2=S)cc1
inactive: dose: 100.0 mg/kg/injection, schedule: Q04DX002 (ip), vehicle: saline with Tween-80 90 % of control | dose: 200.0 mg/kg/injection, schedule: Q04DX002 (ip), vehicle: saline with Tween-80 94 % of control | dose: 400.0 mg/kg/injection, schedule: Q04DX002 (ip), vehicle: saline with Tween-80 87 % of control

O=C1NN=COc2ccccc21
inactive: [1] 106 % of control and 108 % of control and 93 % of control | [2] 100 % of control and 102 % of control and 105 % of control | [3] 106 % of control and 115 % of control and 121 % of control | [4] 110 % of control and 119 % of control

Cc1nonc1-c1ccc2c(c1)OCO2
inactive: dose: 25.0 mg/kg/injection, schedule: Q01DX009 (ip), vehicle: Klucel (hydroxypropylcellulose) (HPC) 110 % of control | [5] 105 % of control | [6] 106 % of control | [7] 105 % of control

Cc1cccc(N=Cc2ccc(C=Nc3cccc(C)c3C)cc2)c1C
inactive: [5] 92 % of control | [6] 91 % of control | [7] 86 % of control

Cc1ccc([Se]CCBr)cc1
inactive: dose: 25.0 mg/kg/injection, schedule: Q01DX001 (ip), vehicle: saline 108 % of control | dose: 50.0 mg/kg/injection, schedule: Q01DX001 (ip), vehicle: saline 101 % of control | dose: 100.0 mg/kg/injection, schedule: Q01DX001 (ip), vehicle: saline 96 % of control

COC(=O)C(C)NC(=O)c1c2nc3c(C(=O)NC(C)C(=O)OC)ccc(C)c3oc-2c(C)c(=O)c1N (stereo not given)
inactive: dose: 3.12 mg/kg/injection, schedule: Q01DX005 (ip), vehicle: distilled water + Tween-80 100 % of control | dose: 3.12 mg/kg/injection, schedule: Q01DX005 (ip), vehicle: saline with Tween-80 98 % of control | dose: 6.25 mg/kg/injection, schedule: Q01DX005 (ip), vehicle: distilled water + Tween-80 100 % of control and 102 % of control | dose: 6.25 mg/kg/injection, schedule: Q01DX005 (ip), vehicle: saline with Tween-80 97 % of control | dose: 12.5 mg/kg/injection, schedule: Q01DX005 (ip), vehicle: distilled water + Tween-80 96 % of control | dose: 12.5 mg/kg/injection, schedule: Q01DX005 (ip), vehicle: saline with Tween-80 87 % of control and 92 % of control | dose: 25.0 mg/kg/injection, schedule: Q01DX005 (ip), vehicle: distilled water + Tween-80 89 % of control and 94 % of control | dose: 50.0 mg/kg/injection, schedule: Q01DX005 (ip), vehicle: distilled water + Tween-80 90 % of control | [8] 89 % of control | [9] 89 % of control | [10] 92 % of control

CCCC#CC(=O)OC
inactive: [1] 97 % of control | [2] 100 % of control | [3] 106 % of control

c1ccc(P(CCNCCP(c2ccccc2)c2ccccc2)c2ccccc2)cc1
inactive: [8] 105 % of control | [9] 109 % of control

O=C1Cc2[nH]ccc2C(=O)O1
inactive: dose: 100.0 mg/kg/injection, schedule: Q01DX001 (ip), vehicle: saline with Tween-80 99 % of control | dose: 200.0 mg/kg/injection, schedule: Q01DX001 (ip), vehicle: saline with Tween-80 90 % of control | dose: 400.0 mg/kg/injection, schedule: Q01DX001 (ip), vehicle: saline with Tween-80 107 % of control

CN(C)C1C(=O)C(C(=O)NCNC2C(=O)N3C2SC(C)(C)C3C(=O)O)=C(O)C2(O)C(=O)C3=C(O)c4c(O)cccc4C(C)(O)C3CC12 (stereo not given)
inactive: [8] 100 % of control | [9] 104 % of control | [10] 90 % of control

COC(=O)C1Cc2cncn2C(=O)N1 (stereo not given)
inactive: dose: 8.0 mg/kg/injection, schedule: Q01DX009 (ip), vehicle: water 108 % of control | dose: 16.0 mg/kg/injection, schedule: Q01DX009 (ip), vehicle: water 100 % of control | dose: 32.0 mg/kg/injection, schedule: Q01DX009 (ip), vehicle: water 103 % of control | dose: 64.0 mg/kg/injection, schedule: Q01DX009 (ip), vehicle: water 107 % of control

Nc1cc2c(cc1Br)-c1ccccc1C2=O
inactive: [1] 96 % of control | [2] 97 % of control | [3] 90 % of control

OC1CN(C(c2ccccc2)c2ccccc2)C1
inactive: [5] 100 % of control | [6] 108 % of control | [7] 104 % of control

COC(=O)c1cc(CC[N+](C)(C)Cc2ccccc2)c2ccccn12
inactive: dose: 6.25 mg/kg/injection, schedule: Q04DX002 (ip), vehicle: saline 104 % of control | dose: 12.5 mg/kg/injection, schedule: Q04DX002 (ip), vehicle: saline 96 % of control | dose: 25.0 mg/kg/injection, schedule: Q04DX002 (ip), vehicle: saline 106 % of control

CCCCCCCCOCC(=O)OC
inactive: [1] 106 % of control | [2] 107 % of control | [3] 101 % of control

Cc1ccc(C(=O)C(c2nc3n(c2O)/C(=N/C(=O)Nc2ccc(Cl)cc2)N=N3)c2nc3n(c2O)/C(=N/C(=O)Nc2ccc(Cl)cc2)N=N3)cc1
inactive: dose: 60.0 mg/kg/injection, schedule: Q01DX005 (ip), vehicle: saline 99 % of control | dose: 120.0 mg/kg/injection, schedule: Q01DX005 (ip), vehicle: saline 97 % of control | dose: 240.0 mg/kg/injection, schedule: Q01DX005 (ip), vehicle: saline 87 % of control

O=C(NC(=O)C(F)(F)F)Nc1cc(F)ccc1F
inactive: [1] 99 % of control | [2] 105 % of control | [3] 107 % of control

CNC(=O)c1ccccc1C(O)c1ccc(C)cc1 (stereo not given)
inactive: [1] 105 % of control | [2] 99 % of control | [3] 99 % of control

COc1ccc(CCNC2=C(/C=C\C(=O)O)C(=O)CC2)cc1OC
inactive: dose: 25.0 mg/kg/injection, schedule: Q01DX001 (ip), vehicle: Klucel (hydroxypropylcellulose) (HPC) 95 % of control | dose: 50.0 mg/kg/injection, schedule: Q01DX001 (ip), vehicle: Klucel (hydroxypropylcellulose) (HPC) 100 % of control | dose: 100.0 mg/kg/injection, schedule: Q01DX001 (ip), vehicle: Klucel (hydroxypropylcellulose) (HPC) 87 % of control and 92 % of control

Fc1cccc2c(SCCCCCSc3c4ccccc4nc4c(F)cccc34)c3ccccc3nc12
inactive: dose: 60.0 mg/kg/injection, schedule: Q01DX005 (ip), vehicle: Klucel (hydroxypropylcellulose) (HPC) 93 % of control | dose: 120.0 mg/kg/injection, schedule: Q01DX005 (ip), vehicle: Klucel (hydroxypropylcellulose) (HPC) 89 % of control

NN1C(=O)c2ccccc2C1=O
inactive: [1] 96 % of control | [2] 112 % of control | [3] 95 % of control | [4] 99 % of control

O=S(=O)(O)CNc1ccc(Br)cc1
inactive: dose: 100.0 mg/kg/injection, schedule: Q04DX003 (ip), vehicle: saline 99 % of control | dose: 200.0 mg/kg/injection, schedule: Q04DX003 (ip), vehicle: saline 99 % of control | dose: 400.0 mg/kg/injection, schedule: Q04DX003 (ip), vehicle: saline 89 % of control

CC(C(=O)O)N(CCC#N)CCC#N (stereo not given)
inactive: dose: 50.0 mg/kg/injection, schedule: Q01DX005 (ip), vehicle: saline 95 % of control | dose: 100.0 mg/kg/injection, schedule: Q01DX005 (ip), vehicle: saline 100 % of control | dose: 200.0 mg/kg/injection, schedule: Q01DX005 (ip), vehicle: saline 95 % of control
